SMILES strings stand for the structures. Read-outs that look alike come from different tables or passages of the source. Bounds are passed on as bounds.

Experiment [1] has as its target SHP-2 enzyme (Met1-Leu525) (Homo sapiens (Human), UniProt Q06124). In words: SHP2 inhibition enzymatic assay. In kind it is biochemical. The note with it: read-out: SHP2wt-IC50. Summed up:
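SHP-2 (Met1-Leu525), 0.5 nM, activated with 500 nM IRS1 bis-phosphopeptide, preincubated 30 min with compounds in HEPES pH 7.2 buffer with 5 mM DTT. 75 μM DiFMUP added for 30 min at room temperature, stopped with bpV; fluorescence read. IC50 from four-parameter logistic fit of % inhibition.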

Experiment [2] has as its system ERK phosphorylation in KYSE-520 cells. Put plainly: Phospho-ERK cellular assay. The note with it: KYSE-520 cells, 2 h at 37° C., phospho-ERK1/2 (Thr202/Tyr204) TR-FRET, read-out: PERK IC50. In kind it is cell-based. Summed up:
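TR-FRET read-out of ERK1/2 Thr202/Tyr204 phosphorylation was taken after overnight antibody incubation at room temperature. Before that, KYSE-520 cells were treated 2 h at 37 °C with compound dilutions and lysed 30 min. Percent inhibition relative to vehicle and cell-free wells was fitted four-parametrically to give IC50.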
(In general: TR-FRET usually uses a lanthanide donor and a delayed reading to cut background.)

The mark [3] stands for this setting: 0.5 nM SHP-2 activated by 500 nM IRS1 peptide, 75 μM DiFMUP substrate.

Chain of SHP-2 enzyme (Met1-Leu525) (Q06124 1-525): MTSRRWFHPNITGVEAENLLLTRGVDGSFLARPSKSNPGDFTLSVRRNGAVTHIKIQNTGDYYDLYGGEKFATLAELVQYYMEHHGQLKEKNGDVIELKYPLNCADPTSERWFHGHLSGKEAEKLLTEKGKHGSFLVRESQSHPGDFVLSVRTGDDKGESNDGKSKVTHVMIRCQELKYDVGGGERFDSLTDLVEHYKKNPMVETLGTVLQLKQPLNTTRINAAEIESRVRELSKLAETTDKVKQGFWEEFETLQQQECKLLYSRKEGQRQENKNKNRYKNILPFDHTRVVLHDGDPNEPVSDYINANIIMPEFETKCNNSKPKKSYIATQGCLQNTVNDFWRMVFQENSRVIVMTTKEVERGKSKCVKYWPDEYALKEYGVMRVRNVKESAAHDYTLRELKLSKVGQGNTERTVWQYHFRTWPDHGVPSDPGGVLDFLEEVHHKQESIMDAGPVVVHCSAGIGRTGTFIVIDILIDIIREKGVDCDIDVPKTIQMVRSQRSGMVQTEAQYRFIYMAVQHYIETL

Usually IC50 stands for the concentration needed to halve the response being measured. For `NCC1(c2ccsc2)C2CCN(c3cnc4c(-c5cccc(Cl)c5Cl)n[nH]c4n3)CC21` (centres unmarked) [Example 94, (3-(3-(2,3-dichlorophenyl)-1H-pyrazolo[3,4-b]pyrazin-6-yl)-7-(thiophen-3-yl)-3-azabicyclo [4.1.0]heptan-7-yl)methanamine], the IC50 in experiment [1] (setting [3]) was < 500 nM; in experiment [2] (Homo sapiens, KYSE-520, 2 h) it was < 1000 nM.

As to `Cc1cc(C2(CN)C3CCN(c4cnc5c(-c6ccc7nn(C)cc7c6Cl)n[nH]c5n4)CC32)no1` (centres unmarked) [Example 24, (3-(3-(4-chloro-2-methyl-2H-indazol-5-yl)-1H-pyrazolo[3,4-b]pyrazin-6-yl)-7-(5-methylisoxazol-3-yl)-3-azabicyclo[4.1.0]heptan-7-yl)methanamine], the IC50 in experiment [1] (setting [3]) was < 500 nM; in experiment [2] (Homo sapiens, KYSE-520, 2 h), < 1000 nM.

Take `COc1cnc2ccc(-c3n[nH]c4nc(N5CC[C@@H]6[C@H](C5)[C@@]6(CN)c5ccccc5F)cnc34)c(Cl)c2n1` [Example 119, ((1S,6R,7R)-3-(3-(5-chloro-3-methoxyquinoxalin-6-yl)-1H-pyrazolo[3,4-b]pyrazin-6-yl)-7-(2-fluorophenyl)-3-azabicyclo[4.1.0]heptan-7-yl)methanamine]: the 50% inhibitory concentration (IC50) in experiment [1] (setting [3]) is < 500 nM; in experiment [2] (Homo sapiens, KYSE-520, 2 h), < 1000 nM.

Regarding `Cn1c(N2CC[C@@H]3[C@H](C2)[C@@]3(CN)c2ccccc2F)nc2[nH]nc(-c3ccc(C(N)=O)c4ncccc34)c2c1=O` [Example 343, 5-(6-((1S,6R,7R)-7-(aminomethyl)-7-(2-fluorophenyl)-3-azabicyclo[4.1.0]heptan-3-yl)-5-methyl-4-oxo-4,5-dihydro-1H-pyrazolo[3,4-d]pyrimidin-3-yl)quinoline-8-carboxamide], the concentration for half-maximal inhibition (IC50) is < 500 nM in experiment [1] (setting [3]) and > 5000 nM in experiment [2] (Homo sapiens, KYSE-520, 2 h).

For the compound `Cc1cccc([C@@]2(CN)[C@@H]3CCN(c4cnc5c(-c6ccc7nn(C)cc7c6C)n[nH]c5n4)C[C@@H]32)c1F` [Example 184, ((1S,6R,7R)-3-(3-(2,4-dimethyl-2H-indazol-5-yl)-1H-pyrazolo[3,4-b]pyrazin-6-yl)-7-(2-fluoro-3-methylphenyl)-3-azabicyclo[4.1.0]heptan-7-yl)methanamine], the half-inhibitory concentration (IC50) in experiment [1] (setting [3]) was < 500 nM; in experiment [2] (Homo sapiens, KYSE-520, 2 h) it was < 1000 nM.

As to `Cn1c(=O)[nH]c2cc(-c3n[nH]c4nc(N5CC[C@@H]6[C@H](C5)[C@@]6(CN)c5ccccc5F)cnc34)ccc21` [Example 289, 5-(6-((1S,6R,7R)-7-(aminomethyl)-7-(2-fluorophenyl)-3-azabicyclo[4.1.0]heptan-3-yl)-1H-pyrazolo[3,4-b]pyrazin-3-yl)-1-methyl-1,3-dihydro-2H-benzo[d]imidazol-2-one], the IC50 in experiment [1] (setting [3]) is < 500 nM; in experiment [2] (Homo sapiens, KYSE-520, 2 h), < 1000 nM.

Turning to `COc1ccc2ncccc2c1-c1n[nH]c2nc(N3CC[C@@H]4[C@H](C3)[C@@]4(CN)c3cc(C)on3)cnc12` [Example 115, ((1S,6R,7S)-3-(3-(6-methoxyquinolin-5-yl)-1H-pyrazolo[3,4-b]pyrazin-6-yl)-7-(5-methylisoxazol-3-yl)-3-azabicyclo[4.1.0]heptan-7-yl)methanamine], the concentration for half-maximal inhibition (IC50) in experiment [1] (setting [3]) was 500 to 3000 nM; in experiment [2] (Homo sapiens, KYSE-520, 2 h), < 1000 nM.

Consider `NCC1(c2cccnc2)C2CCN(c3cnc4c(-c5cccc(Cl)c5Cl)n[nH]c4n3)CC21` (centres unmarked) [Example 2, [3-[3-(2,3-dichlorophenyl)-1H-pyrazolo[3,4-b]pyrazin-6-yl]-7-(pyridin-3-yl)-3-azabicyclo[4.1.0]heptan-7-yl]methanamine], for which the IC50 was < 500 nM in experiment [1] (setting [3]) and < 1000 nM in experiment [2] (Homo sapiens, KYSE-520, 2 h).

For `CC(C)n1ncc2c(Cl)c(-c3n[nH]c4nc(N5CC[C@@H]6[C@H](C5)[C@@]6(CN)c5ccccc5F)cnc34)ccc21` [Example 325, ((1S,6R,7R)-3-(3-(4-chloro-1-isopropyl-1H-indazol-5-yl)-1H-pyrazolo[3,4-b]pyrazin-6-yl)-7-(2-fluorophenyl)-3-azabicyclo[4.1.0]heptan-7-yl)methanamine], the IC50 was < 500 nM in experiment [1] (setting [3]) and < 1000 nM in experiment [2] (Homo sapiens, KYSE-520, 2 h).

For the compound `CN(C)c1nccc(-c2n[nH]c3nc(N4CC[C@@H]5[C@H](C4)[C@@]5(CN)c4ccccc4F)cnc23)c1Cl` [Example 190, 4-(6-((1S,6R,7R)-7-(aminomethyl)-7-(2-fluorophenyl)-3-azabicyclo[4.1.0]heptan-3-yl)-1H-pyrazolo[3,4-b]pyrazin-3-yl)-3-chloro-N,N-dimethylpyridin-2-amine], the IC50 is < 500 nM in experiment [1] (setting [3]) and < 1000 nM in experiment [2] (Homo sapiens, KYSE-520, 2 h).

Regarding `NCC1C2CCN(c3nc4nc(Sc5cccnc5C(F)(F)F)cnc4[nH]3)CC12` (centres unmarked) [Example 68, (3-(5-((2-(trifluoromethyl)pyridin-3-yl)thio)-1H-imidazo[4,5-b]pyrazin-2-yl)-3-azabicyclo[4.1.0]heptan-7-yl)methanamine], the figures for the IC50 in experiment [1] and in experiment [2] (Homo sapiens) were < 500 nM and > 5000 nM, respectively.

Take `Cc1c(-c2n[nH]c3nc(N4CC[C@@H]5[C@H](C4)[C@@]5(CN)c4ccccc4F)cnc23)ccn2cnnc12` [Example 211, ((1S,6R,7R)-7-(2-fluorophenyl)-3-(3-(8-methyl-[1,2,4]triazolo[4,3-a]pyridin-7-yl)-1H-pyrazolo[3,4-b]pyrazin-6-yl)-3-azabicyclo[4.1.0]heptan-7-yl)methanamine]: the IC50 is < 500 nM in experiment [1] (setting [3]) and > 5000 nM in experiment [2] (Homo sapiens, KYSE-520, 2 h).

Regarding `Cc1cc(C2(CN)C3CCN(c4cnc5c(N6CCCc7ncccc76)n[nH]c5n4)CC32)no1` (centres unmarked) [Example 60, (3-(3-(3,4-dihydro-1,5-naphthyridin-1(2H)-yl)-1H-pyrazolo[3,4-b]pyrazin-6-yl)-7-(5-methylisoxazol-3-yl)-3-azabicyclo[4.1.0]heptan-7-yl)methanamine], the IC50 in experiment [1] (setting [3]) is < 500 nM; in experiment [2] (Homo sapiens, KYSE-520, 2 h) it was < 1000 nM.

As for `CN(C)C(=O)Cn1cc2c(Cl)c(-c3n[nH]c4nc(N5CC[C@@H]6[C@H](C5)[C@@]6(CN)c5ccccc5F)cnc34)ccc2n1` [Example 428], the results for the IC50 in experiment [1] (setting [3]) and in experiment [2] were < 500 nM and < 1000 nM, respectively.

With `COc1cccc(-c2n[nH]c3nc(N4CCC5C(C4)C5(CN)c4nc(C)cs4)cnc23)c1Cl` (centres unmarked) [Example 87, (3-(3-(2-chloro-3-methoxyphenyl)-1H-pyrazolo[3,4-b]pyrazin-6-yl)-7-(4-methylthiazol-2-yl)-3-azabicyclo[4.1.0]heptan-7-yl)methanamine], the IC50 in experiment [1] (setting [3]) is < 500 nM; in experiment [2] (Homo sapiens, KYSE-520, 2 h), < 1000 nM.

Consider `Cc1nc2ccc(-c3n[nH]c4nc(N5C[C@@H]6[C@H](C5)[C@@]6(CN)c5ccn(C)n5)cnc34)c(Cl)c2s1` [Example 475, ((1R,5S,6r)-3-(3-(7-chloro-2-methylbenzo[d]thiazol-6-yl)-1H-pyrazolo[3,4-b]pyrazin-6-yl)-6-(1-methyl-1H-pyrazol-3-yl)-3-azabicyclo[3.1.0]hexan-6-yl)methanamine], for which the IC50 in experiment [1] (setting [3]) is < 500 nM; in experiment [2] (Homo sapiens, KYSE-520, 2 h), < 1000 nM.

Take `COCc1ccc(-c2n[nH]c3nc(N4CC[C@@H]5[C@H](C4)[C@@]5(CN)c4cc(C)on4)cnc23)c2cccnc12` [Example 128, ((1S,6R,7S)-3-(3-(8-(methoxymethyl)quinolin-5-yl)-1H-pyrazolo[3,4-b]pyrazin-6-yl)-7-(5-methylisoxazol-3-yl)-3-azabicyclo[4.1.0]heptan-7-yl)methanamine]: the IC50 in experiment [1] (setting [3]) is < 500 nM; in experiment [2] (Homo sapiens, KYSE-520, 2 h), < 1000 nM.

With `Cn1cc2c(Cl)c(-c3n[nH]c4nc(N5C[C@@H]6[C@H](C5)[C@@]6(CN)c5nc(C(F)(F)F)cs5)cnc34)ccc2n1` [Example 488, ((1R,5S,6r)-3-(3-(4-chloro-2-methyl-2H-indazol-5-yl)-1H-pyrazolo[3,4-b]pyrazin-6-yl)-6-(4-(trifluoromethyl)thiazol-2-yl)-3-azabicyclo[3.1.0]hexan-6-yl)methanamine], the IC50 in experiment [1] (setting [3]) was < 500 nM; in experiment [2] (Homo sapiens, KYSE-520, 2 h), < 1000 nM.

In the case of `NC[C@]1(c2ccccc2F)[C@@H]2CCN(c3cnc4c(-c5ccnc(N)c5Cl)n[nH]c4n3)C[C@@H]21` [Example 105, 4-(6-((1S,6R,7R)-7-(aminomethyl)-7-(2-fluorophenyl)-3-azabicyclo[4.1.0]heptan-3-yl)-1H-pyrazolo[3,4-b]pyrazin-3-yl)-3-chloropyridin-2-amine], the 50% inhibitory concentration (IC50) in experiment [1] (setting [3]) was < 500 nM; in experiment [2] (Homo sapiens, KYSE-520, 2 h), < 1000 nM.

Take `NC[C@]1(c2ccccc2F)[C@@H]2CCN(c3cnc4c(-c5ccc6nn(CC(N)=O)cc6c5Cl)n[nH]c4n3)C[C@@H]21` [Example 324, 2-(5-(6-((1S,6R,7R)-7-(aminomethyl)-7-(2-fluorophenyl)-3-azabicyclo[4.1.0]heptan-3-yl)-1H-pyrazolo[3,4-b]pyrazin-3-yl)-4-chloro-2H-indazol-2-yl)acetamide]: the IC50 in experiment [1] (setting [3]) is < 500 nM; in experiment [2] (Homo sapiens, KYSE-520, 2 h), < 1000 nM.

`NC[C@]1(c2ccccc2F)[C@@H]2CCN(c3cnc4c(-c5cc6ccccc6c(=O)[nH]5)n[nH]c4n3)C[C@@H]21` [Example 235, 3-(6-((1S,6R,7R)-7-(aminomethyl)-7-(2-fluorophenyl)-3-azabicyclo[4.1.0]heptan-3-yl)-1H-pyrazolo[3,4-b]pyrazin-3-yl)isoquinolin-1(2H)-one]: the half-inhibitory concentration (IC50) in experiment [1] (setting [3]) was < 500 nM; in experiment [2] (Homo sapiens, KYSE-520, 2 h), > 5000 nM.

Take `Cc1csc(C2(CN)C3CCN(c4cnc5c(-c6cccc7ccccc67)n[nH]c5n4)CC32)n1` (centres unmarked) [Example 89, (7-(4-methylthiazol-2-yl)-3-(3-(naphthalen-1-yl)-1H-pyrazolo[3,4-b]pyrazin-6-yl)-3-azabicyclo[4.1.0]heptan-7-yl)methanamine]: the IC50 in experiment [1] (setting [3]) was < 500 nM; in experiment [2] (Homo sapiens, KYSE-520, 2 h), < 1000 nM.

(Values after patent US20240109900A1, “AZABICYCLIC SHP2 INHIBITORS” (IRBM S.P.A., priority 2021, published 2024).)
